Source: PubChem BioAssay (NCI)
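Results reflect a 48-hour exposure of cells in 96-well plates to compound at five concentrations. At the GI50, growth is halved. At the TGI there is no net growth.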

Experiments:
Assay in all cases: DTP human tumour cell line panel, 48 h
[1] = test system: SW-620 colon
[2] = test system: UACC-257 melanoma
[3] = test system: NCI-H226 lung
[4] = test system: A498 renal
[5] = test system: UO-31 renal
[6] = test system: OVCAR-8 ovarian
[7] = test system: SNB-75 CNS
[8] = test system: OVCAR-5 ovarian
[9] = test system: NCI-H23 lung
[10] = test system: OVCAR-3 ovarian
[11] = test system: MCF7 breast
[12] = test system: DU-145 prostate
[13] = test system: RXF 393 renal
[14] = test system: NCI/ADR-RES ovarian
[15] = test system: NCI-H460 lung
[16] = test system: HCT-15 colon
[17] = test system: SK-MEL-5 melanoma
[18] = test system: HOP-62 NSCLC
[19] = test system: LOX IMVI melanoma
[20] = test system: SF-295 CNS
[21] = test system: ACHN renal
[22] = test system: HCC-2998 colon
[23] = test system: EKVX NSCLC
[24] = test system: HT29 colon
[25] = test system: K-562 leukemia
[26] = test system: KM12 colon
[27] = test system: SN12C renal
[28] = test system: CCRF-CEM leukemia
[29] = test system: SK-OV-3 ovarian
[30] = test system: HL-60(TB) leukemia
[31] = test system: MDA-MB-435
[32] = test system: OVCAR-4 ovarian
[33] = test system: SR leukemia
[34] = test system: HS 578T breast
[35] = test system: MOLT-4 leukemia
[36] = test system: NCI-H522 lung
[37] = test system: SNB-19 CNS
[38] = test system: M14 melanoma
[39] = test system: MALME-3M melanoma
[40] = test system: U251 CNS
[41] = test system: A549 NSCLC
[42] = test system: SF-539 CNS
[43] = test system: CAKI-1 renal
[44] = test system: 786-0 renal
[45] = test system: HOP-92 NSCLC
[46] = test system: SF-268 CNS
[47] = test system: IGROV1 ovarian
[48] = test system: HCT-116 colon
[49] = test system: COLO 205 colon
[50] = test system: MDA-MB-231 breast
[51] = test system: UACC-62 melanoma
[52] = test system: SK-MEL-2 melanoma
[53] = test system: TK-10 renal
[54] = test system: BT-549 breast
[55] = test system: PC-3 prostate
[56] = test system: RPMI-8226 leukemia
[57] = test system: SK-MEL-28 melanoma
[58] = test system: T-47D breast

Compound: NC(=O)c1cc2c3ccccc3ccn2c1-c1ccccc1
- GI50 [1]: 0.0357 µM
- TGI [1]: 25 µM
- GI50 [2]: 11.5 µM
- TGI [2]: 26.5 µM
- GI50 [3]: 0.627 µM
- TGI [3]: 25.7 µM
- GI50 [4]: 0.0468 µM
- TGI [4]: 7.42 µM
- GI50 [5]: 0.708 µM
- TGI [5]: 26.3 µM
- GI50 [6]: 0.0937 µM
- TGI [6]: 16.4 µM
- GI50 [7]: 0.758 µM
- TGI [7]: > 46.9 µM
- GI50 [8]: 5.6 µM
- TGI [8]: 36.7 µM
- GI50 [9]: 0.319 µM
- TGI [9]: 14.4 µM
- GI50 [10]: 0.0272 µM
- TGI [10]: 0.072 µM
- GI50 [11]: 0.0597 µM
- TGI [11]: 13.5 µM
- GI50 [12]: 0.0719 µM
- TGI [12]: 2.54 µM
- GI50 [13]: 0.0462 µM
- TGI [13]: 2.26 µM
- GI50 [14]: 0.0317 µM
- TGI [14]: 0.0919 µM
- GI50 [15]: 0.042 µM
- TGI [15]: 10.5 µM
- GI50 [16]: 0.0543 µM
- TGI [16]: 11.9 µM
- GI50 [17]: 0.0392 µM
- TGI [17]: 3.14 µM
- GI50 [18]: 0.446 µM
- TGI [18]: 18.8 µM
- GI50 [19]: 0.0912 µM
- TGI [19]: 16.2 µM
- GI50 [20]: 0.0304 µM
- TGI [20]: 1.05 µM
- GI50 [21]: 3.17 µM
- TGI [21]: 30.5 µM
- GI50 [22]: 0.542 µM
- TGI [22]: 9.55 µM
- GI50 [23]: 0.396 µM
- TGI [23]: 45.3 µM
- GI50 [24]: 0.412 µM
- TGI [24]: 9.12 µM
- GI50 [25]: 0.12 µM
- TGI [25]: 11.8 µM
- GI50 [26]: 0.0396 µM
- TGI [26]: 3.88 µM
- GI50 [27]: 0.0889 µM
- TGI [27]: 15.2 µM
- GI50 [28]: 0.0425 µM
- TGI [28]: 13.8 µM
- GI50 [29]: 0.0503 µM
- TGI [29]: 12.7 µM
- GI50 [30]: 0.242 µM
- TGI [30]: 2.96 µM
- TGI [31]: > 100 µM
- GI50 [32]: 0.155 µM
- TGI [32]: > 54.5 µM
- GI50 [33]: 0.0933 µM
- TGI [33]: 3.75 µM
- GI50 [34]: 0.0632 µM
- TGI [34]: 62.6 µM
- GI50 [35]: 0.521 µM
- TGI [35]: 15.9 µM
- GI50 [36]: 0.0666 µM
- TGI [36]: 20.8 µM
- GI50 [37]: 0.0727 µM
- TGI [37]: 22.1 µM
- GI50 [38]: 0.0706 µM
- TGI [38]: 17.7 µM
- GI50 [39]: 16.7 µM
- TGI [39]: 47.9 µM
- GI50 [40]: 0.0475 µM
- TGI [40]: 14.2 µM
- GI50 [41]: 0.0969 µM
- TGI [41]: 9.82 µM
- GI50 [42]: 0.0248 µM
- TGI [42]: 0.0716 µM
- GI50 [43]: 0.143 µM
- TGI [43]: 3.54 µM
- GI50 [44]: 0.0775 µM
- TGI [44]: 13.6 µM
- GI50 [45]: 0.0179 µM
- TGI [45]: 7.77 µM
- GI50 [46]: 0.0759 µM
- TGI [46]: 13.4 µM
- GI50 [47]: 0.141 µM
- TGI [47]: 33.4 µM
- GI50 [48]: 0.0428 µM
- TGI [48]: 4.22 µM
- GI50 [49]: 0.454 µM
- TGI [49]: 2.31 µM
- GI50 [50]: 0.662 µM
- TGI [50]: 17.5 µM
- GI50 [51]: 0.0385 µM
- TGI [51]: > 41.7 µM
- GI50 [52]: 0.883 µM
- TGI [52]: 40.9 µM
- GI50 [53]: 0.719 µM
- TGI [53]: 24 µM
- GI50 [54]: 0.485 µM
- TGI [54]: 13.1 µM
- GI50 [55]: 0.0371 µM
- TGI [55]: 12.6 µM
- GI50 [56]: 0.0371 µM
- TGI [56]: 2.31 µM
- GI50 [57]: 14.7 µM
- TGI [57]: 34.5 µM

Compound: CCn1c2ccc(O)cc2c2c(C)c3c[n+](C)ccc3c(C)c21
- GI50 [1]: 3.85 µM
- TGI [1]: > 100 µM
- GI50 [3]: 0.896 µM
- TGI [3]: 27.6 µM
- GI50 [4]: 3.71 µM
- TGI [4]: 59.4 µM
- GI50 [5]: 14.9 µM
- TGI [5]: > 100 µM
- GI50 [6]: 1.47 µM
- TGI [6]: 41.4 µM
- GI50 [7]: 1.18 µM
- TGI [7]: 35.8 µM
- GI50 [8]: 23.8 µM
- TGI [8]: > 100 µM
- GI50 [9]: 1.44 µM
- TGI [9]: 25.8 µM
- GI50 [58]: 0.435 µM
- TGI [58]: 4.13 µM
- GI50 [10]: 3.59 µM
- TGI [10]: 32.4 µM
- GI50 [11]: 2.65 µM
- TGI [11]: 23.4 µM
- GI50 [12]: 5.25 µM
- TGI [12]: > 100 µM
- GI50 [13]: 5.58 µM
- TGI [13]: > 100 µM
- GI50 [14]: 31.1 µM
- TGI [14]: > 100 µM
- GI50 [15]: 0.752 µM
- TGI [15]: 11 µM
- GI50 [16]: 29.4 µM
- TGI [16]: > 100 µM
- GI50 [17]: 2.27 µM
- TGI [17]: 10.8 µM
- GI50 [18]: 1.18 µM
- TGI [18]: 21 µM
- GI50 [19]: 8.83 µM
- TGI [19]: > 100 µM
- GI50 [20]: 0.748 µM
- TGI [20]: 31.4 µM
- GI50 [21]: 8.85 µM
- TGI [21]: > 100 µM
- GI50 [22]: 3.9 µM
- TGI [22]: 23.4 µM
- GI50 [23]: 10.9 µM
- TGI [23]: > 100 µM
- GI50 [24]: 13.2 µM
- TGI [24]: > 100 µM
- GI50 [25]: 6.03 µM
- TGI [25]: > 100 µM
- GI50 [26]: 2 µM
- TGI [26]: 23.7 µM
- GI50 [27]: 0.152 µM
- TGI [27]: 3.03 µM
- GI50 [28]: 5.7 µM
- TGI [28]: > 100 µM
- GI50 [29]: 7.41 µM
- TGI [29]: 83.8 µM
- GI50 [30]: 40.8 µM
- TGI [30]: > 100 µM
- GI50 [31]: 9.17 µM
- TGI [31]: 50.9 µM
- GI50 [32]: 5.83 µM
- TGI [32]: 47.1 µM
- GI50 [34]: 0.509 µM
- TGI [34]: 4.98 µM
- GI50 [35]: 2.06 µM
- TGI [35]: 95.1 µM
- GI50 [36]: 1.46 µM
- TGI [36]: 10.4 µM
- GI50 [37]: 0.272 µM
- TGI [37]: 6.88 µM
- GI50 [38]: 4.4 µM
- TGI [38]: 29.2 µM
- GI50 [39]: 1.32 µM
- TGI [39]: 7.12 µM
- GI50 [40]: 0.307 µM
- TGI [40]: 9.72 µM
- GI50 [41]: 3.81 µM
- TGI [41]: > 100 µM
- GI50 [42]: 0.873 µM
- TGI [42]: 14.8 µM
- GI50 [43]: 65.2 µM
- TGI [43]: > 100 µM
- GI50 [44]: 0.52 µM
- TGI [44]: > 100 µM
- GI50 [45]: 2.07 µM
- TGI [45]: 30.3 µM
- GI50 [46]: 0.122 µM
- TGI [46]: 4.33 µM
- GI50 [48]: 4.55 µM
- TGI [48]: > 100 µM
- GI50 [49]: 3.03 µM
- TGI [49]: 17.3 µM
- GI50 [50]: 9.58 µM
- TGI [50]: > 100 µM
- GI50 [51]: 2.05 µM
- TGI [51]: 22.8 µM
- GI50 [52]: 3.91 µM
- TGI [52]: 20.1 µM
- GI50 [53]: 24.3 µM
- TGI [53]: > 100 µM
- GI50 [54]: 1.55 µM
- TGI [54]: 8.29 µM
- GI50 [55]: 15.2 µM
- TGI [55]: > 100 µM
- GI50 [56]: 7.43 µM
- TGI [56]: 68 µM
- GI50 [57]: 2.83 µM
- TGI [57]: 16 µM
